Measurements from ChEMBL document CHEMBL5463729, “Data for DCP probe BAY 1753011” (2023).

Legend:
Conditions in all cases: Compound concentration 10.0 uM
[1] = target: NUAK family SNF1-like kinase 1 (Homo sapiens) (UniProt O60285); experiment: Inhibition of ARK5(h) at 10.0 µM in the Eurofins Kinase panel
[2] = target: Aurora kinase A (Homo sapiens) (UniProt O14965); experiment: Inhibition of Aurora-A(h) at 10.0 µM in the Eurofins Kinase panel
[3] = target: CDK4/Cyclin D3 (Homo sapiens) (UniProt P11802+P30281); experiment: Inhibition of CDK4/cyclinD3(h) at 10.0 µM in the Eurofins Kinase panel; assay type: protein-complex assay
[4] = target: Death-associated protein kinase 1 (Homo sapiens) (UniProt P53355); experiment: Inhibition of DAPK1(h) at 10.0 µM in the Eurofins Kinase panel
[5] = target: Dual specificity tyrosine-phosphorylation-regulated kinase 2 (Homo sapiens) (UniProt Q92630); experiment: Inhibition of DYRK2(h) at 10.0 µM in the Eurofins Kinase panel
[6] = target: Ephrin type-A receptor 7 (Homo sapiens) (UniProt Q15375); experiment: Inhibition of EphA7(h) at 10.0 µM in the Eurofins Kinase panel
[7] = target: Ephrin type-A receptor 8 (Homo sapiens) (UniProt P29322); experiment: Inhibition of EphA8(h) at 10.0 µM in the Eurofins Kinase panel
[8] = target: Receptor tyrosine-protein kinase erbB-2 (Homo sapiens) (UniProt P04626); experiment: Inhibition of ErbB2(h) at 10.0 µM in the Eurofins Kinase panel
[9] = target: G protein-coupled receptor kinase 3 (Homo sapiens) (UniProt P35626); experiment: Inhibition of GRK3(h) at 10.0 µM in the Eurofins Kinase panel
[10] = target: Interleukin-1 receptor-associated kinase 4 (Homo sapiens) (UniProt Q9NWZ3); experiment: Inhibition of IRAK4(h) at 10.0 µM in the Eurofins Kinase panel
[11] = target: Leucine-rich repeat serine/threonine-protein kinase 2 (Homo sapiens) (UniProt Q5S007); experiment: Inhibition of LRRK2(h) at 10.0 µM in the Eurofins Kinase panel
[12] = target: Tyrosine-protein kinase Mer (Homo sapiens) (UniProt Q12866); experiment: Inhibition of Mer(h) at 10.0 µM in the Eurofins Kinase panel
[13] = target: Serine/threonine-protein kinase Nek6 (Homo sapiens) (UniProt Q9HC98); experiment: Inhibition of NEK6(h) at 10.0 µM in the Eurofins Kinase panel
[14] = target: Serine/threonine-protein kinase D3 (Homo sapiens) (UniProt O94806); experiment: Inhibition of PKD3(h) at 10.0 µM in the Eurofins Kinase panel
[15] = target: T1, cGMP-dependent protein kinase 1 (Homo sapiens) (UniProt Q13976); experiment: Inhibition of PKG1alpha(h) at 10.0 µM in the Eurofins Kinase panel
T1 sequence (whole entry): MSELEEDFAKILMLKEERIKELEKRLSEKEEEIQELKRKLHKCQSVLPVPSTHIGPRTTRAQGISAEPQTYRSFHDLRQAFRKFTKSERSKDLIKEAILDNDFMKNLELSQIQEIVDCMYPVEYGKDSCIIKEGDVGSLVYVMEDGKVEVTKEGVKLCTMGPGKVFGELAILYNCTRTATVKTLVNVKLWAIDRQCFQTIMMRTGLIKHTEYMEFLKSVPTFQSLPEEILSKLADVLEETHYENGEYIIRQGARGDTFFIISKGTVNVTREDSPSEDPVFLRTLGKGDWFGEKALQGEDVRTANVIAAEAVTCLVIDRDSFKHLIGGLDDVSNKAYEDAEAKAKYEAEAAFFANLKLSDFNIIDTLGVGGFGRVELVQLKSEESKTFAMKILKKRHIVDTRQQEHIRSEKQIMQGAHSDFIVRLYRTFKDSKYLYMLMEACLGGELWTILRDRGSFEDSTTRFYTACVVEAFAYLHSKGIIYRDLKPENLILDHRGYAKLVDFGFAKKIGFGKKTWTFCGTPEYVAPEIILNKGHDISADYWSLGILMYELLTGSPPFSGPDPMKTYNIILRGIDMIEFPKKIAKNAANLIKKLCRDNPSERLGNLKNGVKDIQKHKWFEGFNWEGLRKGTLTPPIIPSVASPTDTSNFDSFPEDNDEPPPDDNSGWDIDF

[16] = target: Receptor-interacting serine/threonine-protein kinase 2 (Homo sapiens) (UniProt O43353); experiment: Inhibition of RIPK2(h) at 10.0 µM in the Eurofins Kinase panel
[17] = target: Serine/threonine-protein kinase PLK2 (Homo sapiens) (UniProt Q9NYY3); experiment: Inhibition of Snk(h) at 10.0 µM in the Eurofins Kinase panel
[18] = target: Phosphatidylinositol 4,5-bisphosphate 3-kinase catalytic subunit gamma isoform (Homo sapiens) (UniProt P48736); experiment: Inhibition of PI3 Kinase (p120g)(h) at 10.0 µM in the Eurofins Kinase panel
[19] = target: Sodium-dependent serotonin transporter (Homo sapiens) (UniProt P31645)
[20] = target: Histamine H4 receptor (Homo sapiens) (UniProt Q9H3N8)
[21] = target: Adenosine receptor A1 (Homo sapiens) (UniProt P30542)
[22] = target: Muscarinic acetylcholine receptor M3 (Homo sapiens) (UniProt P20309)
[23] = target: Sodium-dependent dopamine transporter (Homo sapiens) (UniProt Q01959)
[24] = target: Beta-3 adrenergic receptor (Homo sapiens) (UniProt P13945)
[25] = target: D(2) dopamine receptor (Homo sapiens) (UniProt P14416)
[26] = target: T2, Alpha-2C adrenergic receptor (Homo sapiens) (UniProt P18825)
T2 sequence (whole entry): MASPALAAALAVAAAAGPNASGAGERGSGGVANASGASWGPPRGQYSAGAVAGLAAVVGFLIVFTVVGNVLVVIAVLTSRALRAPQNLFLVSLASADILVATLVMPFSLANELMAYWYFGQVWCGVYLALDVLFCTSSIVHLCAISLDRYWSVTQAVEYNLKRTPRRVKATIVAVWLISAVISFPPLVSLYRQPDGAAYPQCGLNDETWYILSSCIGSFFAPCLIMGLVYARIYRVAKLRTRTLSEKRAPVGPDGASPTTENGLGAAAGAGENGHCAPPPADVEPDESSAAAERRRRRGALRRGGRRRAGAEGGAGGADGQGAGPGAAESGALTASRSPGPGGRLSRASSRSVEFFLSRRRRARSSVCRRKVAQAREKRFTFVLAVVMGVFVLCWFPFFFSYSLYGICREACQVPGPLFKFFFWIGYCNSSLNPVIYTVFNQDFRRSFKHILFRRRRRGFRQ

Histamine H4 receptor (Homo sapiens), sequence (Q9H3N8 whole entry): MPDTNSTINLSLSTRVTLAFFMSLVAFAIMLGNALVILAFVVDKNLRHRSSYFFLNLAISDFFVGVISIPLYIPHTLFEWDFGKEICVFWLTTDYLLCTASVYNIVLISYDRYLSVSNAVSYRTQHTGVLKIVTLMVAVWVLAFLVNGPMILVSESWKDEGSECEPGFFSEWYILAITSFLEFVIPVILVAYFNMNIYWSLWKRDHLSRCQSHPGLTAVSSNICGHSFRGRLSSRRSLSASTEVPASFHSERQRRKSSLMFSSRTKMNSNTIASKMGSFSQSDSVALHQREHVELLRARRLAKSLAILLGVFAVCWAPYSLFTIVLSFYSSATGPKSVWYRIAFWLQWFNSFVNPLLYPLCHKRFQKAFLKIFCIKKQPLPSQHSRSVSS
Sodium-dependent serotonin transporter (Homo sapiens), sequence (P31645 whole entry, looked up): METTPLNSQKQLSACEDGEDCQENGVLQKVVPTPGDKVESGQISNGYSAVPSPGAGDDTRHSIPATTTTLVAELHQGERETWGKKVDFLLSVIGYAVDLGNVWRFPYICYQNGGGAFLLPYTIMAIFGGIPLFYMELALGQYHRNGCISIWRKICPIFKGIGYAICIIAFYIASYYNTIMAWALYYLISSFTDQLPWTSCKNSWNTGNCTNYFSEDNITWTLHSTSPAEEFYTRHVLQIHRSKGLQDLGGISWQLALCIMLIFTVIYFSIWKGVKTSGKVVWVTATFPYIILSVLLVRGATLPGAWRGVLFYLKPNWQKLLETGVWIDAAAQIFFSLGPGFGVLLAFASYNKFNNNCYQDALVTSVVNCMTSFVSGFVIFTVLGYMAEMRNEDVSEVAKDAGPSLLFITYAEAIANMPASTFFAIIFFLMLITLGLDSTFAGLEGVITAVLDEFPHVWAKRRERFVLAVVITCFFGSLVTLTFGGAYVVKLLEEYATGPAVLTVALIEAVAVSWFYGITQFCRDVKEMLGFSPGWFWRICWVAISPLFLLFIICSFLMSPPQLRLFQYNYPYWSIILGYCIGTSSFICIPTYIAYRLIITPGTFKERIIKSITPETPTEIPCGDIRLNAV
Aurora kinase A (Homo sapiens), sequence (O14965 whole entry): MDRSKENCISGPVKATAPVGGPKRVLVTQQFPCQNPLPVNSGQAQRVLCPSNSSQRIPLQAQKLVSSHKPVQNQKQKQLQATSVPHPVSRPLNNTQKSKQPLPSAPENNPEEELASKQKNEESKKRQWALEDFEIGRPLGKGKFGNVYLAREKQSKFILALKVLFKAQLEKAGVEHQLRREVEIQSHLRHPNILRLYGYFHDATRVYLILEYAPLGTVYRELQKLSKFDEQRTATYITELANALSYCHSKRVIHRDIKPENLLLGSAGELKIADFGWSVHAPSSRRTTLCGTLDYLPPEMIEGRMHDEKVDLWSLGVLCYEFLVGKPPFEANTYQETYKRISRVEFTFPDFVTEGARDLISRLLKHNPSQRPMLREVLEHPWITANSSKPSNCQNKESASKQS
Dual specificity tyrosine-phosphorylation-regulated kinase 2 (Homo sapiens), sequence (Q92630 whole entry): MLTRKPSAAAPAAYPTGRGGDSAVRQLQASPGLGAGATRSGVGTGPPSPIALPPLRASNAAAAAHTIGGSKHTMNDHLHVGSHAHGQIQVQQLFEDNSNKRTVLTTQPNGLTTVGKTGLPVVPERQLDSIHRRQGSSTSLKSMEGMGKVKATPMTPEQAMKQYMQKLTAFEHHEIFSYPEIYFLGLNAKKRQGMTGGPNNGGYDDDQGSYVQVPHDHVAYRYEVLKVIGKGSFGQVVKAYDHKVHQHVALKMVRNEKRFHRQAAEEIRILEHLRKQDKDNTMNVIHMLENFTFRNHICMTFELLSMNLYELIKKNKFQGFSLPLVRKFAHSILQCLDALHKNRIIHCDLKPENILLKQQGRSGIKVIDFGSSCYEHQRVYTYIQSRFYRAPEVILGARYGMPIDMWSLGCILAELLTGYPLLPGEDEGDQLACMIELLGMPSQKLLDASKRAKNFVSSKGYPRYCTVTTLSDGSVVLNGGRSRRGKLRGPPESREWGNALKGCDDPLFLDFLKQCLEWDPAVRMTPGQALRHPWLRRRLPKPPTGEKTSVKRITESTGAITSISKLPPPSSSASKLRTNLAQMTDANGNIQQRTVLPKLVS
Ephrin type-A receptor 7 (Homo sapiens), sequence (Q15375 28-998 limits assumed): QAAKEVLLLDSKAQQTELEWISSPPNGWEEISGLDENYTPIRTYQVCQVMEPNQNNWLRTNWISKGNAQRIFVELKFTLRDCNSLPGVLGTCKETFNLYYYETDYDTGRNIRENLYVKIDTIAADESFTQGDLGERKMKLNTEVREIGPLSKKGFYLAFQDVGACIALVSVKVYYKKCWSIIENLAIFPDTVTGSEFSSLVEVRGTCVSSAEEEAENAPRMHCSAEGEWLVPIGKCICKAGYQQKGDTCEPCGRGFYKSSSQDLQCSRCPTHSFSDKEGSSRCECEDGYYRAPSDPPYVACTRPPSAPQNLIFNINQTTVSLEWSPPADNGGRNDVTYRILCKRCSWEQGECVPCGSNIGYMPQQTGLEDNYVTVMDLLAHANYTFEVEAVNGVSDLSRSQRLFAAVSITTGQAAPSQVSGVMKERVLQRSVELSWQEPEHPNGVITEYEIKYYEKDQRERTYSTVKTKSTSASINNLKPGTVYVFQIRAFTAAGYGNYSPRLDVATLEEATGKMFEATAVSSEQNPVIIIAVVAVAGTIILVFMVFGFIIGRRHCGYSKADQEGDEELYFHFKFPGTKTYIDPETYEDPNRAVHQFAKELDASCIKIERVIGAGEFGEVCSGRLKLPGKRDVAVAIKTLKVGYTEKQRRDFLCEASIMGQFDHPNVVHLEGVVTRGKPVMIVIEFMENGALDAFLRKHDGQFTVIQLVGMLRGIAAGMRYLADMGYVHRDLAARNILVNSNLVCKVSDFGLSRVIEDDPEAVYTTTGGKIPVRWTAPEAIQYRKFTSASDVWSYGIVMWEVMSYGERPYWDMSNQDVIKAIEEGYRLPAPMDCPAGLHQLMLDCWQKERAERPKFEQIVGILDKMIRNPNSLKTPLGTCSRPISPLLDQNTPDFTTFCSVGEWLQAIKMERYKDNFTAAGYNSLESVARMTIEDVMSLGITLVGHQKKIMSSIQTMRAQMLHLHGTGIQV
Serine/threonine-protein kinase D3 (Homo sapiens), sequence (O94806 whole entry): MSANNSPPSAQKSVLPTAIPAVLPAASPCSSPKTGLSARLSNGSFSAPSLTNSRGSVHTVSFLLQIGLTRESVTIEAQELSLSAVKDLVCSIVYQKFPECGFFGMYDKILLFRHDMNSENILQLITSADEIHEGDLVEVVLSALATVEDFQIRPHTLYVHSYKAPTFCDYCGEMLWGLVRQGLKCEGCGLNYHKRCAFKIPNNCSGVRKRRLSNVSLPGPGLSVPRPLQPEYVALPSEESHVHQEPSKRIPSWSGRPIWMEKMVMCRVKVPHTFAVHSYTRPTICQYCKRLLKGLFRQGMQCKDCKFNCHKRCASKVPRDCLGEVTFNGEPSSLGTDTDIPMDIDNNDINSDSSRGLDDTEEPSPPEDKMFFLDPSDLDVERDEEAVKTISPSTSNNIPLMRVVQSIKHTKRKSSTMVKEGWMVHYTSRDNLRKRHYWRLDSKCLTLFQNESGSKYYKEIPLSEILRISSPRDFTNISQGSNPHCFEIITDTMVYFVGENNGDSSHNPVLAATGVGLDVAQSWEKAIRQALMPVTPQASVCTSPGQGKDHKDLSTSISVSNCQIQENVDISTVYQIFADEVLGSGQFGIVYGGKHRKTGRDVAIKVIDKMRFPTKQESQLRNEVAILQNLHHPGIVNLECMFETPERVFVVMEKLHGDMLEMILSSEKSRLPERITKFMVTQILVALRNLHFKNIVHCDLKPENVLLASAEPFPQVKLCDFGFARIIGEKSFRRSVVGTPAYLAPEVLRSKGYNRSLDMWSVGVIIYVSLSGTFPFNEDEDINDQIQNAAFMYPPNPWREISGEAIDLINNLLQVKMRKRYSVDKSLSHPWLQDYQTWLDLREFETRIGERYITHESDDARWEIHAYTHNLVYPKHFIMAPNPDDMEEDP
Muscarinic acetylcholine receptor M3 (Homo sapiens), sequence (P20309 whole entry, looked up): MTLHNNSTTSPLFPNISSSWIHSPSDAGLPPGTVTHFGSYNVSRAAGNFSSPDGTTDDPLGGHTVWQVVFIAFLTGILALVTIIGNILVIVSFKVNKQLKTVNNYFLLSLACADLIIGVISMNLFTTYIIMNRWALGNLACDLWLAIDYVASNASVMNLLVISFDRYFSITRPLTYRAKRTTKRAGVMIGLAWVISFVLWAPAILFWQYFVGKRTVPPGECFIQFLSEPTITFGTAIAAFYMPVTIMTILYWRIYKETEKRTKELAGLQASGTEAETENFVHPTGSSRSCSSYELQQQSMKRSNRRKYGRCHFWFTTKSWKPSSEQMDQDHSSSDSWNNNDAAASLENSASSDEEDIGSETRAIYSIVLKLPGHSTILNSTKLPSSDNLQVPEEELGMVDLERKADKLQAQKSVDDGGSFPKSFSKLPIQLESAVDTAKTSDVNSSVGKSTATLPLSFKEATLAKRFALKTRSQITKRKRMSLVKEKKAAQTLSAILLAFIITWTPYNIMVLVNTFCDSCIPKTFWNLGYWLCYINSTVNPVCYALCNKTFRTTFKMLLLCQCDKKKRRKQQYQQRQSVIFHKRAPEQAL
Beta-3 adrenergic receptor (Homo sapiens), sequence (P13945 whole entry, looked up): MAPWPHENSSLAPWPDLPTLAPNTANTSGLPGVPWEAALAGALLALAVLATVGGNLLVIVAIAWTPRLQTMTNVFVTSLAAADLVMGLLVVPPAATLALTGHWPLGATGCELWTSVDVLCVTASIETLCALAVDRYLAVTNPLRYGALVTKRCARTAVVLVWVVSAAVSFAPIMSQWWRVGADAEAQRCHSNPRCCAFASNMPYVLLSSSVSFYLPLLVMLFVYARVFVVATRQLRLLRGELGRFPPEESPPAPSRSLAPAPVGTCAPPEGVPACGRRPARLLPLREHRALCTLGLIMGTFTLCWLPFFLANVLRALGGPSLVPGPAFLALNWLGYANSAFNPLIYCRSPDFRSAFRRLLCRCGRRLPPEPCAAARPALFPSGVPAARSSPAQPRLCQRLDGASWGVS

Compound	inhibition [1] [%]	inhibition [2] [%]	inhibition [3] [%]	inhibition [4] [%]	inhibition [5] [%]	inhibition [6] [%]	inhibition [7] [%]	inhibition [8] [%]	inhibition [9] [%]	inhibition [10] [%]	inhibition [11] [%]	inhibition [12] [%]	inhibition [13] [%]	inhibition [14] [%]	inhibition [15] [%]	inhibition [16] [%]	inhibition [17] [%]	inhibition [18] [%]	inhibition [19] [%]	inhibition [20] [%]	further results
O=c1n(Cc2cncn2-c2cccc(Cl)c2)nc(-c2ccc(Cl)cc2)n1C[C@H](O)C(F)(F)F	-2.39	12.7	7.51	-5.66	-8.9	3.37	3.67	-4.27	-3.13	-1.29	10.3	-6.11	5.32	1.68	-0.21	-2.28	0.93	9.44	14.1	0.51	inhibition [21]: 8%; inhibition [22]: 4%; inhibition [23]: 19%; inhibition [24]: 6%; inhibition [25]: 16%; inhibition [26]: -3%
C[C@H](O)c1nc(Cn2nc(-c3ccc(Cl)cc3)n(C[C@H](O)C(F)(F)F)c2=O)nn1-c1cccc(Cl)c1 [PECAVAPTAN]	-3.57	11.2	5.58	-1.83	-0.76	4.11	4.55	-6.43	2.8	3.56	5.14	-0.91	4.93	-0.82	-5.35	-1.02	-4.51	14.1	9.13	-1.47	inhibition [21]: 26%; inhibition [22]: 8%; inhibition [23]: 4%; inhibition [24]: -10%; inhibition [25]: 14%; inhibition [26]: 11%
